The text below walks through data of ChEMBL document CHEMBL1123738, “Kinetics of solvolysis and muscarinic actions of an N-methyl-N-(2-bromoethyl)amino analogue of oxotremorine” (J Med Chem, 1987).

The nature of data set [1]: Rate of cyclization of compound at 22 degree Celsius and pH 4.24. The class given is ADME.
Data set [2] in a line: pKa value of compound was determined. The class given is physicochemical.
Data set [3] can be described thus: Rate of cyclization of compound at 22 degree Celsius and pH 5.46. It is filed as ADME.
The nature of data set [4]: Half-life of compound at 22 degree Celsius and pH 6.25 was determined. The class given is ADME.
Data set [5] can be described thus: First-order rate constant for cyclization of the free base. The class given is ADME.
The nature of data set [6]: Rate of cyclization of compound at 22 degree Celsius and pH 7.67. The class given is ADME.
A short description of data set [7]: Half-life of compound at 22 degree Celsius and pH 5.46 was determined. It is filed as ADME.
The nature of data set [8]: Apparent first-order rate constant for bromide ion release at 37 degree Celsius and pH 7.3. The class given is ADME.
The nature of data set [9]: Rate of cyclization of compound at 22 degree Celsius and pH 7.29. It is filed as ADME.
Data set [10] is described as follows: Rate of cyclization of compound at 22 degree Centigrade and pH 6.25. It is filed as ADME.
Data set [11] in a line: Equipotent potent ratio relative to carbachol (nicotinic activity). The class given is ADME.
Data set [12] is described as follows: Half-life of compound at 22 degree Celsius and pH 4.24 was determined. The class given is ADME.
Data set [13] in a line: Half-life of compound at 22 degree Celsius and pH 7.29 was determined. It is filed as ADME.
The nature of data set [14]: Half-life of compound at 22 degree Centigrade and pH 7.67 was determined. The class given is ADME.
Data set [15] in a line: Rate of cyclization, as measured by rate of formation of compound at 37 degree Centigrade. It is filed as ADME.
Data set [16] can be described thus: Rate of hydrolysis of compound at pH 7.3 and 22 degree Centigrade. The class given is ADME. The following applies: buffer.
Data set [17] can be described thus: Rate of hydrolysis of compound at pH 7.3 and 37 degree Centigrade. The class given is ADME. The following applies: buffer.
Data set [18] is described as follows: Rate of cyclization, as measured by rate of formation of compound at 22 degree Centigrade. The class given is ADME.

SMILES strings stand for the structures.

As a reminder, the pKa is the pH at which an ionisable group is half protonated. A low value points to a stronger acid or weaker base. Usually half-life stands for how long it takes for the measured level to halve.

As for `CN(CC#CCN1CCCC1=O)CCBr`, the k1 in [1] was 0.00266 min⁻¹; in [3], 0.0678 min⁻¹; in data set [6] it was 0.1512 min⁻¹; in data set [9], 0.1406 min⁻¹; in [10] it was 0.1146 min⁻¹. For the same compound, in data set [2], the pKa was 5.6. In addition, the half-life in data set [4] was found to be 6.1 min; in data set [7] it was 10.2 min; in data set [12] it was 261 min; in data set [13], 4.9 min; in data set [14], 4.6 min. For the same compound, the k0 in data set [5] was 0.146 min⁻¹. In [8], the Rate constant was 0.85 min⁻¹. Moreover, the Molar ratio in [11] is 12.3.

For `C[N+]1(CC#CCN2CCCC2=O)CC1.[Br-]`, the values for the k1 in [15] and in [18] were 0.845 min⁻¹ and 0.145 min⁻¹, respectively. The k2 in [16] was 0.00829 min⁻¹; in data set [17], 0.0395 min⁻¹.
